Experimental data as given in US5980913A, “Peptides having immunomodulatory activity” (Biochem Pharma, Inc., priority 1994, dated 1999).
Where a SMILES comes first, the peptide text is derived from it.

How the values were obtained:
[1] = tested on: C57BL/6 lymphocytes with irradiated DBA/2 cells; assay: Mixed lymphocyte reaction (MLR), 3H thymidine uptake; format: cell-based, mice; conditions: concentration not given; 0 not defined
Source text: 1. Cytotoxic T Lymphocytes (CTL) Mixed Lymphocyte Reaction (MLR) and Mitogenic Response Assays
The protocols used are described in Hudson L., Haay F., Pratical immunology, 3rd edition, Blackwell, Scientific publications, Oxford 1989, p. 158-162, and p.447.
Lymphocytes were isolated from C57BL/6 mice and DBA/2 mice in accordance to techniques well known in the art. Cell concentration was adjusted to 10×10^6 cell/ml for each assay. The cells isolated from DBA/2 mice were irradiated with 3000 Rads.
In a 6 well plate, each well was set up with:
The cells were incubated for five days at 37° C. in 5% CO2, after which CTL and MLR assays were performed.
b) Mixed Lymphocyte Reaction (MLR)
Mixed lymphocyte reaction is an in vitro counterpart of the allograft rejection. Briefly, lymphocyte activation (mitotic response) is obtained when cells from two inbred strains or from two outbred individuals of any species are mixed in in vitro culture. To have a unidirectional response, the proliferation of either cell type may be blocked with X-ray irradiation or mitomycin C treatment. After 4 days incubation, ^3 H thymidine uptake and cytotoxicity assays (CTL) were performed. The cells were then resuspended and 100 μl of cell suspension was deposited in each well of a 96 well plate. 1 μCi of tritiated thymidine was added for 6 hours. After incubation, the cells were then harvested and counted using a Microbeta counter.

[2] = tested on: blood cell subsets (cell surface antigens); assay: In vivo/ex vivo immunophenotyping in the blood, mice treated 4 consecutive days, blood taken on day 5; design: species or system C57BL/6 mice
Experimental: C57BL.backslash.6 mice are treated with 0, 50, 100, 200, and 300 mg/kg of drug (in saline) for 4 consecutive days. Blood is taken by cardiac puncture on day 5, and the lymphocytes are isolated from spleen in the following manner:
1. Immunophenotyping (blood and spleen)
Cell immunophenotyping is performed on blood and spleen. The following cell surface antigens are analyzed:
CD4 (T helper/inducer, binds class II-restricted T cells);
CD8 (cytotoxic T cells, CTL adhesion);
MAC-1 (monocyte/macrophage);
NK (natural killer cells);
CD45 (all leukocytes, protein tyrosine phosphatase).

NCCCC[C@H](N)C(=O)N[C@@H](CC(N)=O)C(=O)N1CCC[C@H]1C(=O)N[C@@H](Cc1ccc(O)cc1)C(=O)O [PEPTIDE #1, H-Lys-Asn-Pro-Tyr-OH] (H-KNPY-OH)
MLR [1]: 0 | B cell subset, relative percentage ([2]; 50 mg/kg): 23.57 | CD4+ CD8+ cell subset, relative percentage ([2]; 50 mg/kg): 3.65 | CD4+ CD8- cell subset, relative percentage ([2]; 50 mg/kg): 27.15 | CD4+ CD11+ cell subset, relative percentage ([2]; 50 mg/kg): 0.53 | CD4+ CD11- cell subset, relative percentage ([2]; 50 mg/kg): 34.10 | CD4+ CD45+ cell subset, relative percentage ([2]; 50 mg/kg): 26.95 | CD4+ CD45- cell subset, relative percentage ([2]; 50 mg/kg): 3.80 | CD4- CD8+ cell subset, relative percentage ([2]; 50 mg/kg): 11.20 | CD4- CD8- cell subset, relative percentage ([2]; 50 mg/kg): 58.05 | CD4- CD11+ cell subset, relative percentage ([2]; 50 mg/kg): 7.67 | CD4- CD11- cell subset, relative percentage ([2]; 50 mg/kg): 57/73 | CD4- CD45+ cell subset, relative percentage ([2]; 50 mg/kg): 65.30 | CD4- CD45- cell subset, relative percentage ([2]; 50 mg/kg): 3.90 | CD8+ CD45+ cell subset, relative percentage ([2]; 50 mg/kg): 13.70 | CD8+ CD45- cell subset, relative percentage ([2]; 50 mg/kg): 0.55 | CD8- CD45+ cell subset, relative percentage ([2]; 50 mg/kg): 76.15 | CD8- CD45- cell subset, relative percentage ([2]; 50 mg/kg): 9.60 | NK+ CD3+ cell subset, relative percentage ([2]; 50 mg/kg): 7.83 | NK+ CD3- cell subset, relative percentage ([2]; 50 mg/kg): 10.47 | NK- CD3+ cell subset, relative percentage ([2]; 50 mg/kg): 41.23 | NK- CD3- cell subset, relative percentage ([2]; 50 mg/kg): 40.53 | Non B cell subset, relative percentage ([2]; 50 mg/kg): 76.40 | B cell subset, relative percentage ([2]; 100 mg/kg): 19.23 | CD4+ CD8+ cell subset, relative percentage ([2]; 100 mg/kg): 27.20 | CD4+ CD8- cell subset, relative percentage ([2]; 100 mg/kg): 28.55 | CD4+ CD11+ cell subset, relative percentage ([2]; 100 mg/kg): 0.23 | CD4+ CD11- cell subset, relative percentage ([2]; 100 mg/kg): 41.67 | CD4+ CD45+ cell subset, relative percentage ([2]; 100 mg/kg): 46.75 | CD4+ CD45- cell subset, relative percentage ([2]; 100 mg/kg): 8.90 | CD4- CD8+ cell subset, relative percentage ([2]; 100 mg/kg): 11.50 | CD4- CD8- cell subset, relative percentage ([2]; 100 mg/kg): 32.85 | CD4- CD11+ cell subset, relative percentage ([2]; 100 mg/kg): 3.00 | CD4- CD11- cell subset, relative percentage ([2]; 100 mg/kg): 55.13 | CD4- CD45+ cell subset, relative percentage ([2]; 100 mg/kg): 37.30 | CD4- CD45- cell subset, relative percentage ([2]; 100 mg/kg): 7.00 | CD8+ CD45+ cell subset, relative percentage ([2]; 100 mg/kg): 31.95 | CD8+ CD45- cell subset, relative percentage ([2]; 100 mg/kg): 6.20 | CD8- CD45+ cell subset, relative percentage ([2]; 100 mg/kg): 47.55 | CD8- CD45- cell subset, relative percentage ([2]; 100 mg/kg): 14.35 | NK+ CD3+ cell subset, relative percentage ([2]; 100 mg/kg): 2.80 | NK+ CD3- cell subset, relative percentage ([2]; 100 mg/kg): 6.50 | NK- CD3+ cell subset, relative percentage ([2]; 100 mg/kg): 37.57 | NK- CD3- cell subset, relative percentage ([2]; 100 mg/kg): 53.13 | Non B cell subset, relative percentage ([2]; 100 mg/kg): 80.77 | B cell subset, relative percentage ([2]; 200 mg/kg): 20.10 | CD4+ CD8+ cell subset, relative percentage ([2]; 200 mg/kg): 16.11 | CD4+ CD8- cell subset, relative percentage ([2]; 200 mg/kg): 24.11 | CD4+ CD11+ cell subset, relative percentage ([2]; 200 mg/kg): 0.50 | CD4+ CD11- cell subset, relative percentage ([2]; 200 mg/kg): 39.73 | CD4+ CD45+ cell subset, relative percentage ([2]; 200 mg/kg): 33.01 | CD4+ CD45- cell subset, relative percentage ([2]; 200 mg/kg): 6.22 | CD4- CD8+ cell subset, relative percentage ([2]; 200 mg/kg): 8.57 | CD4- CD8- cell subset, relative percentage ([2]; 200 mg/kg): 37.41 | CD4- CD11+ cell subset, relative percentage ([2]; 200 mg/kg): 5.50 | CD4- CD11- cell subset, relative percentage ([2]; 200 mg/kg): 54.30 | CD4- CD45+ cell subset, relative percentage ([2]; 200 mg/kg): 40.63 | CD4- CD45- cell subset, relative percentage ([2]; 200 mg/kg): 6.74 | CD8+ CD45+ cell subset, relative percentage ([2]; 200 mg/kg): 20.68 | CD8+ CD45- cell subset, relative percentage ([2]; 200 mg/kg): 4.13 | CD8- CD45+ cell subset, relative percentage ([2]; 200 mg/kg): 49.80 | CD8- CD45- cell subset, relative percentage ([2]; 200 mg/kg): 10.39 | NK+ CD3+ cell subset, relative percentage ([2]; 200 mg/kg): 4.57 | NK+ CD3- cell subset, relative percentage ([2]; 200 mg/kg): 8.70 | NK- CD3+ cell subset, relative percentage ([2]; 200 mg/kg): 31.73 | NK- CD3- cell subset, relative percentage ([2]; 200 mg/kg): 55.07 | Non B cell subset, relative percentage ([2]; 200 mg/kg): 79.90 | B cell subset, relative percentage ([2]; 300 mg/kg): 33.67 | CD4+ CD8+ cell subset, relative percentage ([2]; 300 mg/kg): 2.37 | CD4+ CD8- cell subset, relative percentage ([2]; 300 mg/kg): 31.07 | CD4+ CD11+ cell subset, relative percentage ([2]; 300 mg/kg): 0.37 | CD4+ CD11- cell subset, relative percentage ([2]; 300 mg/kg): 29.53 | CD4+ CD45+ cell subset, relative percentage ([2]; 300 mg/kg): 30.67 | CD4+ CD45- cell subset, relative percentage ([2]; 300 mg/kg): 2.77 | CD4- CD8+ cell subset, relative percentage ([2]; 300 mg/kg): 16.67 | CD4- CD8- cell subset, relative percentage ([2]; 300 mg/kg): 49.90 | CD4- CD11+ cell subset, relative percentage ([2]; 300 mg/kg): 5.07 | CD4- CD11- cell subset, relative percentage ([2]; 300 mg/kg): 65.03 | CD4- CD45+ cell subset, relative percentage ([2]; 300 mg/kg): 62.10 | CD4- CD45- cell subset, relative percentage ([2]; 300 mg/kg): 4.47 | CD8+ CD45+ cell subset, relative percentage ([2]; 300 mg/kg): 18.10 | CD8- CD45+ cell subset, relative percentage ([2]; 300 mg/kg): 73.03 | CD8- CD45- cell subset, relative percentage ([2]; 300 mg/kg): 8.83 | NK+ CD3+ cell subset, relative percentage ([2]; 300 mg/kg): 9.97 | NK+ CD3- cell subset, relative percentage ([2]; 300 mg/kg): 11.87 | NK- CD3+ cell subset, relative percentage ([2]; 300 mg/kg): 42.43 | NK- CD3- cell subset, relative percentage ([2]; 300 mg/kg): 35.77 | Non B cell subset, relative percentage ([2]; 300 mg/kg): 66.30 | change of the relative percentage of B cell (in words) ([2]; 300 mg/kg): significant increase
